Experimental data taken from PubChem BioAssay (NCI).
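Protocol summary: plate cells (96-well), add compound at 5 concentrations, incubate 48 h, interpolate endpoints linearly. TGI: total growth inhibition.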

Experiments:
Test in all cases: inhibition of tumour cell growth, NCI panel, 48 h
SNB-75 CNS = test system: SNB-75 CNS
DMS 273 small cell lung = test system: DMS 273 small cell lung
RXF 393 renal = test system: RXF 393 renal
LOX IMVI melanoma = test system: LOX IMVI melanoma
NCI-H23 lung = test system: NCI-H23 lung
SK-MEL-28 melanoma = test system: SK-MEL-28 melanoma
U251 CNS = test system: U251 CNS
SF-268 CNS = test system: SF-268 CNS
OVCAR-3 ovarian = test system: OVCAR-3 ovarian
XF 498 CNS = test system: XF 498 CNS
A549 NSCLC = test system: A549 NSCLC
SK-MEL-2 melanoma = test system: SK-MEL-2 melanoma
EKVX NSCLC = test system: EKVX NSCLC
MALME-3M melanoma = test system: MALME-3M melanoma
OVCAR-8 ovarian = test system: OVCAR-8 ovarian
KM20L2 colon = test system: KM20L2 colon
DLD-1 colon = test system: DLD-1 colon
ACHN renal = test system: ACHN renal
SF-539 CNS = test system: SF-539 CNS
M14 melanoma = test system: M14 melanoma
LXFL 529 NSCLC = test system: LXFL 529 NSCLC
OVCAR-4 ovarian = test system: OVCAR-4 ovarian
HCC-2998 colon = test system: HCC-2998 colon
OVCAR-5 ovarian = test system: OVCAR-5 ovarian
TK-10 renal = test system: TK-10 renal
CAKI-1 renal = test system: CAKI-1 renal
UACC-257 melanoma = test system: UACC-257 melanoma
NCI-H522 lung = test system: NCI-H522 lung
786-0 renal = test system: 786-0 renal
M19-MEL melanoma = test system: M19-MEL melanoma
HOP-62 NSCLC = test system: HOP-62 NSCLC
NCI-H226 lung = test system: NCI-H226 lung
UO-31 renal = test system: UO-31 renal
HT29 colon = test system: HT29 colon
HL-60(TB) leukemia = test system: HL-60(TB) leukemia
NCI-H460 lung = test system: NCI-H460 lung
SN12C renal = test system: SN12C renal
SW-620 colon = test system: SW-620 colon
SNB-78 CNS = test system: SNB-78 CNS
KM12 colon = test system: KM12 colon
HCT-116 colon = test system: HCT-116 colon
COLO 205 colon = test system: COLO 205 colon
HOP-18 NSCLC = test system: HOP-18 NSCLC
HOP-92 NSCLC = test system: HOP-92 NSCLC
SNB-19 CNS = test system: SNB-19 CNS
SF-295 CNS = test system: SF-295 CNS
SK-OV-3 ovarian = test system: SK-OV-3 ovarian
UACC-62 melanoma = test system: UACC-62 melanoma
RXF-631 renal = test system: RXF-631 renal
DMS 114 small cell lung = test system: DMS 114 small cell lung
MOLT-4 leukemia = test system: MOLT-4 leukemia
IGROV1 ovarian = test system: IGROV1 ovarian
SR leukemia = test system: SR leukemia
CCRF-CEM leukemia = test system: CCRF-CEM leukemia
A498 renal = test system: A498 renal
HCT-15 colon = test system: HCT-15 colon
RPMI-8226 leukemia = test system: RPMI-8226 leukemia
K-562 leukemia = test system: K-562 leukemia
SK-MEL-5 melanoma = test system: SK-MEL-5 melanoma

SMILES: CCOC(=O)CCc1c(C)c2c(OC)cc(OC)cc2oc1=O
- TGI (SNB-75 CNS): > 100 µM
- TGI (DMS 273 small cell lung): > 100 µM
- TGI (RXF 393 renal): 82.4 µM
- TGI (LOX IMVI melanoma): > 100 µM
- TGI (NCI-H23 lung): > 100 µM
- TGI (SK-MEL-28 melanoma): > 100 µM
- TGI (U251 CNS): > 100 µM
- TGI (SF-268 CNS): > 100 µM
- TGI (OVCAR-3 ovarian): > 100 µM
- TGI (XF 498 CNS): 93.8 µM
- TGI (A549 NSCLC): > 100 µM
- TGI (SK-MEL-2 melanoma): > 100 µM
- TGI (EKVX NSCLC): > 100 µM
- TGI (MALME-3M melanoma): > 100 µM
- TGI (OVCAR-8 ovarian): > 100 µM
- TGI (KM20L2 colon): > 100 µM
- TGI (DLD-1 colon): > 100 µM
- TGI (ACHN renal): > 100 µM
- TGI (SF-539 CNS): > 100 µM
- TGI (M14 melanoma): > 100 µM
- TGI (LXFL 529 NSCLC): > 100 µM
- TGI (OVCAR-4 ovarian): > 100 µM
- TGI (HCC-2998 colon): > 100 µM
- TGI (OVCAR-5 ovarian): > 100 µM
- TGI (TK-10 renal): > 100 µM
- TGI (CAKI-1 renal): > 100 µM
- TGI (UACC-257 melanoma): > 100 µM
- TGI (NCI-H522 lung): > 100 µM
- TGI (786-0 renal): > 100 µM
- TGI (M19-MEL melanoma): > 100 µM
- TGI (HOP-62 NSCLC): > 100 µM
- TGI (NCI-H226 lung): > 100 µM
- TGI (UO-31 renal): > 100 µM
- TGI (HT29 colon): > 100 µM
- TGI (HL-60(TB) leukemia): > 100 µM
- TGI (NCI-H460 lung): > 100 µM
- TGI (SN12C renal): > 100 µM
- TGI (SW-620 colon): > 100 µM
- TGI (SNB-78 CNS): > 100 µM
- TGI (KM12 colon): > 100 µM
- TGI (HCT-116 colon): > 100 µM
- TGI (COLO 205 colon): > 100 µM
- TGI (HOP-18 NSCLC): 99 µM
- TGI (HOP-92 NSCLC): > 100 µM
- TGI (SNB-19 CNS): > 100 µM
- TGI (SF-295 CNS): > 100 µM

SMILES: NC(CCc1nc(-c2cccc([N+](=O)[O-])c2)cs1)C(=O)O (stereo not given)
- TGI (DMS 273 small cell lung): > 100 µM
- TGI (RXF 393 renal): > 100 µM
- TGI (SK-OV-3 ovarian): > 100 µM
- TGI (NCI-H23 lung): > 100 µM
- TGI (UACC-62 melanoma): > 100 µM
- TGI (SK-MEL-28 melanoma): > 100 µM
- TGI (U251 CNS): > 100 µM
- TGI (A549 NSCLC): > 100 µM
- TGI (EKVX NSCLC): > 100 µM
- TGI (OVCAR-8 ovarian): > 100 µM
- TGI (KM20L2 colon): > 100 µM
- TGI (ACHN renal): > 100 µM
- TGI (RXF-631 renal): > 100 µM
- TGI (M14 melanoma): > 100 µM
- TGI (DMS 114 small cell lung): > 100 µM
- TGI (OVCAR-5 ovarian): > 100 µM
- TGI (MOLT-4 leukemia): > 100 µM
- TGI (IGROV1 ovarian): > 100 µM
- TGI (TK-10 renal): > 100 µM
- TGI (UACC-257 melanoma): > 100 µM
- TGI (NCI-H522 lung): > 100 µM
- TGI (SR leukemia): > 100 µM
- TGI (M19-MEL melanoma): > 100 µM
- TGI (HOP-62 NSCLC): > 100 µM
- TGI (CCRF-CEM leukemia): > 100 µM
- TGI (UO-31 renal): > 100 µM
- TGI (HT29 colon): > 100 µM
- TGI (HL-60(TB) leukemia): > 100 µM
- TGI (NCI-H460 lung): > 100 µM
- TGI (SNB-78 CNS): > 100 µM
- TGI (KM12 colon): > 100 µM
- TGI (HCT-116 colon): > 100 µM
- TGI (A498 renal): > 100 µM
- TGI (HOP-92 NSCLC): > 100 µM
- TGI (SNB-19 CNS): > 100 µM
- TGI (SF-295 CNS): > 100 µM

SMILES: NNC(=O)/C(NC(=O)c1ccccc1)=C(\N)c1cccc([N+](=O)[O-])c1
- TGI (SNB-75 CNS): > 100 µM
- TGI (DMS 273 small cell lung): > 100 µM
- TGI (RXF 393 renal): > 100 µM
- TGI (HCT-15 colon): > 100 µM
- TGI (LOX IMVI melanoma): > 100 µM
- TGI (SK-OV-3 ovarian): > 100 µM
- TGI (NCI-H23 lung): > 100 µM
- TGI (UACC-62 melanoma): > 100 µM
- TGI (RPMI-8226 leukemia): > 100 µM
- TGI (SK-MEL-28 melanoma): > 100 µM
- TGI (U251 CNS): > 100 µM
- TGI (SF-268 CNS): > 100 µM
- TGI (OVCAR-3 ovarian): > 100 µM
- TGI (XF 498 CNS): > 100 µM
- TGI (A549 NSCLC): > 100 µM
- TGI (SK-MEL-2 melanoma): > 100 µM
- TGI (EKVX NSCLC): > 100 µM
- TGI (MALME-3M melanoma): > 100 µM
- TGI (K-562 leukemia): > 100 µM
- TGI (OVCAR-8 ovarian): > 100 µM
- TGI (DLD-1 colon): > 100 µM
- TGI (ACHN renal): > 100 µM
- TGI (RXF-631 renal): > 100 µM
- TGI (SF-539 CNS): > 100 µM
- TGI (M14 melanoma): > 100 µM
- TGI (LXFL 529 NSCLC): > 100 µM
- TGI (DMS 114 small cell lung): > 100 µM
- TGI (OVCAR-4 ovarian): > 100 µM
- TGI (HCC-2998 colon): > 100 µM
- TGI (OVCAR-5 ovarian): > 100 µM
- TGI (MOLT-4 leukemia): > 100 µM
- TGI (IGROV1 ovarian): > 100 µM
- TGI (SK-MEL-5 melanoma): > 100 µM
- TGI (TK-10 renal): > 100 µM
- TGI (CAKI-1 renal): > 100 µM
- TGI (UACC-257 melanoma): > 100 µM
- TGI (NCI-H522 lung): > 100 µM
- TGI (SR leukemia): > 100 µM
- TGI (786-0 renal): > 100 µM
- TGI (M19-MEL melanoma): > 100 µM
- TGI (HOP-62 NSCLC): > 100 µM
- TGI (NCI-H226 lung): > 100 µM
- TGI (CCRF-CEM leukemia): > 100 µM
- TGI (UO-31 renal): > 100 µM
- TGI (HT29 colon): > 100 µM
- TGI (HL-60(TB) leukemia): > 100 µM
- TGI (NCI-H460 lung): > 100 µM
- TGI (SN12C renal): > 100 µM
- TGI (SW-620 colon): > 100 µM
- TGI (SNB-78 CNS): > 100 µM
- TGI (KM12 colon): > 100 µM
- TGI (HCT-116 colon): > 100 µM
- TGI (COLO 205 colon): > 100 µM
- TGI (HOP-18 NSCLC): > 100 µM
- TGI (A498 renal): > 100 µM
- TGI (HOP-92 NSCLC): > 100 µM
- TGI (SNB-19 CNS): > 100 µM
- TGI (SF-295 CNS): > 100 µM
